Results as given in patent US8741951B2, “Non-steroidal compounds for androgen receptor modulation” (CNR—Consiglio Nazionale delle Ricerche, priority 2009, dated 2014).
Where two headings read alike, the source gives them in different places.

How the values were obtained:
[1] = tested on: LNCaP-AR cells; experiment: SRB in vitro chemosensitivity assay, LNCaP-AR; assay type: cell-based; settings: for cytotoxic effect (cytostatic / cytocidal), in words: LNCaP-AR
Experimental: (§1) The cell lines were maintained as a monolayer at 37° C. and subcultured weekly. Culture medium was composed of RPMI 1640 supplemented with 10% fetal calf serum and 1% glutamine (Mascia Brunelli s.p.a., Milan, Italy). Cells were used in the exponential growth phase in all the experiments.
(§2) Compounds were dissolved in acetone or DMSO (AITES) ([…]) and stored at −20° C. The cell culture containing acetone at the highest concentration was used as the control.
(§3) Sulforhodamine B (SRB) assay was used according to the method by Skehan et al. (JNCI, 1990). Briefly, cells were collected by trypsinization, counted and plated at a density of 5,000 cells/well in 96-well flat-bottomed microtiter plates (100 μl of cell suspension/well). In the chemosensitivity assay, experiments were run in octuplicate, and each experiment was repeated three times. The optical density (OD) of cells was determined at a wavelength of 490 nm by a colorimetric plate reader.
(§4) If ODtreated is above ODzero, treatment has induced a cytostatic effect, whereas if ODtreated is below ODzero, cell killing has occurred. The ODzero depicts the cell number at the moment of drug addition, the ODcontrol reflects the cell number in untreated wells and the ODtreated reflects the cell number in treated wells on the day of the assay.
(§5) FIGS. 2-11 show the cytotoxic activity of the derivative compounds of the invention on the LNCaP and LNCaP-AR cell lines. The authors examined the antitumour activity of the compounds for which the synthesis is described above, in the hormone-sensitive prostate cancer cell line LNCaP and in its derivative cell line LNCaP-AR, expressing high level of AR and with hormone refractory prostate cancer (HRPC) features. The novel compounds were tested at the increasing concentrations of […], 0.2, 2.0, and 20.0 μM. The highest dose used was chosen on the basis of the clinically achievable peak plasma concentration reported in the literature for bicalutamide (Cockshott I D. Clin Pharmacokinet. 2004; 43(13): 855-78). After 144-hr exposure time the cytotoxic effect of the molecules was calculated according to the method of Monks et al. (Monks A, Scudiero D, Skehan P, et al. Feasibility of a high-flux anticancer drug screen using a diverse panel of cultured human tumor cell lines. J Natl Cancer Inst. 1991; 83: 757-66.)

[2] = tested on: LNCaP cells; experiment: SRB in vitro chemosensitivity assay, LNCaP; assay type: cell-based
Experimental: as §1, §2, §3, §4, §5

[3] = tested on: human hepatoblastoma cell line HepG2; experiment: Cytotoxic activity on HepG2 (hepato-toxicity); assay type: cell-based; settings: HepG2, up to highest concentration tested
Experimental: as §3, §4
FIG. 27-36 show the cytotoxic activity of the drugs on the human hepatoblastoma cell line HepG2. The authors evaluated in vitro the potential hepato-toxicity of some of the novel compounds on HepG2 cell line, a human hepatoblastoma cell line that retains the specialized function of normal hepatocytes [Knowles B B, Howe C C, Aden D P. Human hepatocellular carcinoma cell lines secretes the major plasma proteins and hepatitis B surface antigen. Science 1980, 209:497-499; Aden D P, Vogel A, Plortkin S, Damjanov I, Knowles B B. Controlled synthesis of HBS Ag in a differentiated human liver carcinoma-derived cell line. Nature, 1979, 282:615-616].

[4] = tested on: PC-3 cell line; experiment: SRB cytotoxicity, PC-3; assay type: cell-based, human; settings: PC-3 (no AR), 144 h, up to 20 μM
Experimental: (§6) FIGS. 16-25: cytotoxic effect of compounds (R)-XXIII-2, (R)-XXIII-3, (R)-XXIII-4, (R)-XXIII-5, (R)-XXIII-6, (R)-XXIII-7, (R)-XXIII-8, (R)-XXIII-9, (R)-XXIII-10, (R)-XXIV-9 on PC-3 and DU-145 cell lines at different concentration (0.02, 0.2, 2, 20 μM) after 144 h exposure. On the x-axis is reported the concentration, while on the y-axis is reported the inhibition of the net growth (% net growth).
as §3, §4

[5] = biological target: T1, human androgen receptor (hAR) (Homo sapiens, UniProt P10275); experiment: hAR transactivation assay (ARE-luc) in Cos-7 cells; assay type: cell-based; settings: compound 10 μM with 10 nM R1881
T1 construct: expressed in transfected cells; host or cells: Cos-7
T1 sequence (P10275 1-920): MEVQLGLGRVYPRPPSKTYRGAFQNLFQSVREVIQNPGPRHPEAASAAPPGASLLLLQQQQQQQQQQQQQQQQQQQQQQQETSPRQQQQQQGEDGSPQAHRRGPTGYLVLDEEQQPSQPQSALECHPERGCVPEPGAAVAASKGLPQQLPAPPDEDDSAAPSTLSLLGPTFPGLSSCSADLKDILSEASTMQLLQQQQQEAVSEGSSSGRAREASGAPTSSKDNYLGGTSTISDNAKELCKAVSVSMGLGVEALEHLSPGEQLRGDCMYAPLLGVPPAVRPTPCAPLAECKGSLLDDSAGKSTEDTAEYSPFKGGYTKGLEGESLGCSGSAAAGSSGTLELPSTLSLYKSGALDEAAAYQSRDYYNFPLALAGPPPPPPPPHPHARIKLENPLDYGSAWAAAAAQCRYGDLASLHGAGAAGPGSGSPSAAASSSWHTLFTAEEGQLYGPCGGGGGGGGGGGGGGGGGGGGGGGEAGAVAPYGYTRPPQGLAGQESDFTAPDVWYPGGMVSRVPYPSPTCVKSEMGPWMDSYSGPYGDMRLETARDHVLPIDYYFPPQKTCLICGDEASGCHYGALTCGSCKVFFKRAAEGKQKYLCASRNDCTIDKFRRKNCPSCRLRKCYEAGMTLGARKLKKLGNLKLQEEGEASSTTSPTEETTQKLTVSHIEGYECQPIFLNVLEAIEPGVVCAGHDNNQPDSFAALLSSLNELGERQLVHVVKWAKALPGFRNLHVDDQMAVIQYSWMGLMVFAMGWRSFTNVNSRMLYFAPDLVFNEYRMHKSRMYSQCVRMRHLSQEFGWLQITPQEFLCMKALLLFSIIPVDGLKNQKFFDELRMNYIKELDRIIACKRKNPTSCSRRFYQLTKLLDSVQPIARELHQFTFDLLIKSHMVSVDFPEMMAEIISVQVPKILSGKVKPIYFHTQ
Text: The cDNA coding hAR was cloned into the pSG5 expression vector as reported previously [Chang, C. S., J. Kokontis, and S. T. Liao 1988 Molecular cloning of human and rat complementary DNA encoding androgen receptors Science 240:324-326].
The 3416 construct (ARE-Luc), containing four copies of the wild-type slp-HRE2 (5′-TGGTCAgccAGTTCT-3′) was cloned in the NheI site in pTK-TATA-Luc [Verrijdt, G., E. Schoenmakers, A. Haelens, B. Peeters, G. Verhoeven, W. Rombauts, and F. Claessens 2000 Change of specificity mutations in androgen selective enhancers J. Biol. Chem. 275:12298-12305].
For androgen-stimulated transcriptional analysis, 32×10^4 Cos-7 cells were plated in phenol red-free DMEM containing 5% charcoal-stripped serum. After 48 h, the cells were transfected by Superfect (Qiagen) with 0.3 μg of 3416-pTK-TATA-Luc construct, together with 1.5 μg of either pSG5-empty plasmid or pSG5-hAR expressing plasmid. […] When indicated, the synthetic compounds were added alone to the cell medium. […] It was dissolved in 0.001% (final concentration) ethanol. Control cells were treated with the vehicle alone. Lysates were prepared and the luciferase activity was measured using a luciferase assay system (Promega). The results were corrected using CH110-expressed beta-galactosidase activity (Amersham Biosciences) and luciferase activity was expressed as fold induction. Results were obtained from two or three different experiments, each performed in duplicate. Mean and SEM are shown.

[6] = tested on: DU145 cell line; experiment: SRB cytotoxicity, DU145; assay type: cell-based, human; settings: DU145 (no AR), 144 h, up to 20 μM
Experimental: as §6, §3, §4

[7] = LNCaP-AR cells, 144 h exposure, up to 20 μM
[8] = LNCaP cells, 144 h exposure, up to 20 μM
[9] = Homo sapiens, LNCaP, 144 h, read-out: LC50, LNCaP cells, 144 h exposure, up to 20 μM
[10] = read-out: LC50, LNCaP cells, 144 h exposure, up to 20 μM

Row | Structure (SMILES) | GI50 ([1]; Homo sapiens, LNCaP/AR, 144 h) [µM] | LC50 [1, 7] | cytotoxic effect (cytostatic / cytocidal), in words ([1]; 144 h, up to 20 μM) | GI50 ([2]; Homo sapiens, LNCaP, 144 h) [µM] | LC50 [2, 8] | cytotoxic effect (cytostatic / cytocidal), in words ([2]; LNCaP, 144 h, up to 20 μM) | hepato-toxicity, in words [3] | cytotoxic activity, in words [4] | inhibition of R1881-induced AR transcriptional activation (antagonistic activity), in words [5] | cytotoxic activity, in words [6] | LC50 [2, 9] [µM] | LC50 [2, 10] [µM] | LC50 [3] | GI50 [1, 7] | GI50 [2, 8] | LC50 ([1]; LNCaP-AR cells, 144 h exposure, up to 20 μM, listed as bicalutamide) | GI50 ([2]; Homo sapiens, LNCaP cells, 144 h exposure, up to 20 μM, read-out: GI50) [µM] | LC50 ([2]; LNCaP cells, 144 h exposure, up to 20 μM, listed as bicalutamide)
1 | N#Cc1ccc(NC(=O)[C@](O)(Cc2ccc(F)cc2)CS(=O)(=O)c2ccc(F)cc2)cc1C(F)(F)F [(R)-XXIII-4] | 7.5 | n.r. | suppress completely the cell growth | 7 | n.r. | suppress completely the cell growth | did not display toxicity | negligible cytotoxic activity | A more pronounced inhibition | negligible cytotoxic activity | – | – | – | – | – | – | – | –
2 | N#Cc1ccc(C[C@](O)(CS(=O)(=O)c2ccc(F)cc2)C(=O)Nc2ccc(C#N)c(C(F)(F)F)c2)cc1 [(R)-XXIII-7] | 1.8 | n.r. | – | 1.4 | – | cytocidal effect | did not display toxicity | negligible cytotoxic activity | – | negligible cytotoxic activity | 16.2 to 20 | 20 | – | – | – | – | – | –
3 | N#Cc1ccc(NC(=O)[C@](O)(Cc2cc(F)cc(F)c2)CS(=O)(=O)c2ccc(F)cc2)cc1C(F)(F)F [(R)-XXIII-9] | 8.2 | n.r. | cell killing activity | 5.7 | – | cell killing activity | Hepato-toxicity was observed | maintain their cytostatic and cytocidal activity reaching LC50 values | – | maintain their cytostatic and cytocidal activity reaching LC50 values | 16.2 to 20 | 19.7 | not able to reach LC50 value | – | – | – | – | –
4 | N#Cc1ccc(OCC(O)(Cc2ccccc2)C(=O)Nc2ccc(C#N)c(C(F)(F)F)c2)cc1 (stereo in doubt) [(R)-XXIV-9] | 7.1 | n.r. | cell killing activity | 6.4 | – | cell killing activity | did not display toxicity | maintain their cytostatic and cytocidal activity | – | maintain their cytostatic and cytocidal activity | 16.2 to 20 | 17.4 | – | – | – | – | – | –
5 | N#Cc1ccc(NC(=O)[C@](O)(Cc2cccc3ccccc23)CS(=O)(=O)c2ccc(F)cc2)cc1C(F)(F)F [(R)-XXIII-10] | 8.3 | n.r. | cell killing activity | 6.1 | – | cell killing activity | Hepato-toxicity was observed | maintain their cytostatic and cytocidal activity reaching LC50 values | – | maintain their cytostatic and cytocidal activity reaching LC50 values | 16.2 to 20 | 19.7 | not able to reach LC50 value | – | – | – | – | –
6 | CC[C@](O)(CS(=O)(=O)c1ccc(F)cc1)C(=O)Nc1ccc(C#N)c(C(F)(F)F)c1 [(R)-XXIII-2] | – | n.r. | weak cytostatic effect | – | n.r. | weak cytostatic effect | did not display toxicity | negligible cytotoxic activity | – | negligible cytotoxic activity | – | – | – | n.r. | n.r. | – | – | –
7 | C[C@](O)(CS(=O)(=O)c1ccc(F)cc1)C(=O)Nc1ccc(C#N)c(C(F)(F)F)c1 [(R)-Bicalutamide, reference compound] | – | n.r. | – | – | n.r.^a | – | – | – | – | – | – | – | – | n.r. | – | not observed | 1.8 | not observed
